Source: US20230048132A1, “CYCLIN-DEPENDENT KINASE INHIBITORS” (SPV THERAPEUTICS INC., priority 2018, published 2023)

Test system: LEXFAL MOLT-4
Experiment: 2D cell proliferation assay (CellTiter-Blue)
Type: cell-based
Conditions: Homo sapiens, 72 h, three days of treatment, read-out: abs. IC50
Procedure, shortened: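 Exponential-phase cells plated, 24 h recovery; compound added at five concentrations in full-log steps (top 100 μM), duplicate; incubated 3 days, 37° C; CellTiter-Blue added, fluorescence measured; signal expressed as T/C% of untreated control and fitted (4-parameter) for IC50.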

- IC50: 177 nM
SMILES: CN(C)CCOc1ccc(Nc2ncc3c(n2)N(C2CCCC2)C(=O)[C@]2(CCNC2=O)C3)cc1 [Example D179, (S)-8-cyclopentyl-2-((4-(2-(dimethylamino)ethoxy)phenyl)amino)-5,8-dihydro-7H-spiro[pyrido[2,3-d]pyrimidine-6,3′-pyrrolidine]-2′,7-dione]
